{
  "source": "patent US20190211397A1",
  "about": "“INHIBITORS OF GPR132 FOR USE IN PREVENTING AND/OR TREATING CHEMOTHERAPY-INDUCED NEUROPATHIC PAIN” (Fraunhofer-Gesellschaft zur Foerderung der angewandten …, priority 2016, published 2019)",
  "key": {"G2A receptor (GPR132) [1]": {"target": "T1, G2A receptor (GPR132) (Homo sapiens, UniProt Q9UNW8)", "T1 sequence (Q9UNW8 1-380)": "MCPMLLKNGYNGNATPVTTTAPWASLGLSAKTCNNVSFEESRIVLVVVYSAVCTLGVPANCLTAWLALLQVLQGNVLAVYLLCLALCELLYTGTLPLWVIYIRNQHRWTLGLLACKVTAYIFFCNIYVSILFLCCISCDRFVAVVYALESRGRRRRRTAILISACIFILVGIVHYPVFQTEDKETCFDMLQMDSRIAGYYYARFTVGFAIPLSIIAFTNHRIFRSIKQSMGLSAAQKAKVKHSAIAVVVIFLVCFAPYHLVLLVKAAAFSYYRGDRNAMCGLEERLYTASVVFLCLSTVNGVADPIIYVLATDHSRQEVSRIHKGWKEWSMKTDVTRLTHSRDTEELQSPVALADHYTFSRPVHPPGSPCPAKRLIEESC", "assay": "Calcium flux in COS-1 cells cotransfected with aequorin and G2A", "type": "cell-based", "set-up": "expressed in transfected cells", "conditions": "COS-1 cells transfected with GPR132 and aequorin, 10 nM-10 μM", "description": "For studies of heterologously expressed G2A receptor, COS-1 cells were seeded in white walls-clear bottom 96-well plates and transfected with a plasmid encoding a calcium-sensitive bioluminescent fusion protein between aequorin and GFP (Baubet et al., 2000) together with plasmid containing cDNA for G2A or control DNA (empty vector, mock) at a concentration of 50 ng/well by using FuGENE 6 reagent (Promega) following manufacturer's instructions. Forty eight hours later, cells were loaded with 5 μM coelenterazine h (Invitrogen) in HBSS containing 1.8 mM CaCl2 and 10 mM glucose for 2 h at 37° C. Measurements were performed by using a luminometric plate reader (Flexstation 3). The area under each calcium transient was calculated by using SoftMaxPro software and expressed as area under the curve (AUC)."}, "TRPV1 [2]": {"system": "TRPV1", "assay": "Calcium imaging of DRG neurons: TRPV1 sensitization (two capsaicin stimuli, Δratio)", "type": "cell-based, mice", "procedure": "DRG primary cultures were prepared as described previously (Brenneis et al., 2011 b). Briefly, twenty to thirty murine dorsal roots ganglia (DRGs) were dissected from spinal segments and transferred directly into ice-cold Hanks' balanced salt solution with CaCI2 and MgCI2 (lnvitrogen, Carlsbad, Calif., USA). The DRGs were than incubated with Neurobasal Medium (lnvitrogen, Carlsbad, Calif., USA) containing 500 U/ml collagenase (Sigma, Deisenhofen, Germany) and 2.5 U/ml dispase II (Roche, Mannheim, Germany) for 75 mins at 37° C. After removal of the collagenase/dispase-solution cells were washed three times with medium containing 10% FCS, penicillin/streptomycin/gentamycin (lnvitrogen, Carlsbad, Calif., USA) and incubated in 0.05% trypsin for 10 min at 37° C. After two washing steps, the cells were mechanically dissociated with a 1 ml pipette and plated on Poly-L-lysine (Sigma) coated coverslips. After incubation at 37° C. for 2 h, Neurobasal Medium containing glutamine (2 mm), penicillin (100 U/ml), streptomycin (100 μg/ml), B-27 and gentamicin (50 μg/ml) was added to the cells and incubated overnight. The neurons were used for Calcium imaging the next day.\nCalcium-imaging experiments were performed with a Leica calcium-imaging setup, consisting of a Leica DMI 4000 b inverted microscope equipped with a DFC360 FX (CCD) camera, Fura-2 filters, and an N-Plan 10×/0.25 Ph1 objective (all from Leica), was used. Images were taken every 2 s and were processed with the LAS AF-software (Leica). For each experiment, an area with large cell numbers 24 h after preparation (see DRG primary cultures) was chosen and 40-110 cells were monitored simultaneously. Cells were loaded with 5 μM fura-2-AM-ester (Biotium), incubated for 45-60 min at 37° C. and washed with ringer solution (145 mM NaCI, 1.25 mM CaCl2, 1 mM MgCl2, 5 mM KCI, 10 mM D-glucose, and 10 mM HEPES, adjusted to pH 7.3). Baseline measurements were performed with ringer solution at a flow rate of 1-2 ml/min at room temperature. For the activation of TRPV1 we used a solution of 200 nM capsaicin (Sigma), for TRPA1 activation 50 μM allyl isothiocyanate (AITC, Fluka Analytic) and for TRPM8 100 μM L-menthol (Sigma) dissolved in ringer solution. For TRP-channel sensitization, cells were incubated for 2 mins with different concentrations (50 nM-1000 nM) of (±) 9-HODE (Cayman) or (±) 13-HODE (Cayman) before the second stimulus took place. For control stimulations, the corresponding volume of DMSO (Sigma) was mixed in ringer solution and applied with the same flow rate. 10 μM of the PKA inhibitor H89 (Tocris) or 1 μM of the PKC inhibitor GF1 09203X (Tocris) was co-incubated with fura-2 for 45 mins. As positive control for PKA activation 40 iJM 8-bromo-cAMP (Cayman) and for PKC activation 500 nM bradykinin (Cayman) was used. At the end of each measurement, 50 mM KCl was applied to identify neurons."}, "[3]": {"system": "wild type, TRPV1-deficient and G2A-deficient mice", "assay": "Mechanical pain thresholds after intraplantar 9-HODE in oxaliplatin-treated mice", "type": "in vivo", "conditions": "for mechanical pain thresholds after intraplantar 9-HODE: day eight after oxaliplatin treatment; for mechanical paw withdrawal latencies after intraplantar 9-HODE: day 8 of oxaliplatin treatment", "excerpt": "In all behavioral tests the experimenter was unaware of the treatment and the genotype of the mice. For all behavioral experiments we used only 6-12 weeks old C57BU6N mice purchased from commercial breeding companies (Charles River, Sulzfeld, Germany, Janvier, Le Geneset-Saint-lsle, FR). G2A and TRPV1 knockout strains were from Jackson laboratories. All experiments followed the ethics guidelines for investigations in conscious animals and the procedures were approved by the local Ethics Committee.\nFor the intra plantar (i.pl.) treatment with 9-HODE (1 0 (JM) (Cayman), a volume of 10 (JI was injected in the mid-plantar area of the hindpaw. For the intraperitoneal (i.p.) treatment, 100 (JI of oxaliplatin (3 mg/kg, Tocris) were injection into the peritoneum. The control group animals were treated with the corresponding volumes of 0.9% saline solution.\nTo determine the mechanical thresholds of mice, a Dynamic Plantar Aesthesiometer (Ugo Basile, Comerio, Italy) was used. Mice were put on an elevated grid in test cages at least 2 h before the measurement to allow accommodation. Then, baseline measurement was performed before the treatment with Oxaliplatin or 9-HODE. Therefore, a steel rod pushed against the plantar side of the hind paw with linear ascending force (0-5 g over 10 s, in 0.5 g/s intervals) until a fast withdraw of the paw was observed The time between the first contact of the steel rod and the paw withdraw was measured in seconds (paw withdraw latency) and a cut-off time of 20 s was set."}, "G2A receptor (GPR132) [4]": {"target": "T1, G2A receptor (GPR132)", "conditions": "heterologous expression system; cited from earlier work"}, "TRPV1 [5]": {"system": "TRPV1", "assay": "Whole-cell voltage clamp of DRG neurons, capsaicin-induced inward current", "type": "cell-based, mice", "conditions": "DRG neurons pre-treated with 9-HODE (200 nM, 3 min), capsaicin 1 μM", "procedure": "All recordings were carried out at room temperature within 48 hour of plating DRG neurons. Whole-cell voltage clamp recordings were made with an Axopatch 200A amplifier (Molecular Devices) and patch pipettes with resistances of 2-3 MΩ. Pipette solution was 5 mM NaCl, 140 mM KCl, 0.5 mM CaCl2, 2 mM MgCl2, 5 mM EGTA, 10 mM HEPES, and 3 mM Na2ATP, pH 7.2, adjusted with NaOH. The external solution was 140 mM NaCl, 5 mM KCl, 2 mM CaCl2, 2 mM MgCl2, 10 mM HEPES, and 10 mM D-glucose, pH 7.4, adjusted with NaOH (Sigma). Command protocols were generated and data was digitized with a Digidata 1440A A/D interface with pCLAMP10 software. We used gravity perfusion system connected with perfusion pencil (AutoMate Scientific) to externally apply 9-HODE or capsaicin to the cells."}},
  "note": "“Also recorded” adds a separate entry of the source.",
  "data": [
    {"smiles": "CCCCC/C=C\\C=C\\C(O)CCCCCCCC(=O)O", "note": "(stereo not shown) [9-HODE, 9-hydroxy-10E,12Z-octadecadienoic acid]", "values": [
      {"measurement": "calcium release (bioluminescence of aequorin)", "setting": "G2A receptor (GPR132) [1]", "result": "caused calcium release in a concentration-dependent manner"},
      {"measurement": "9-HODE-induced TRPV1 sensitization in G2A-deficient DRG neurons", "setting": "TRPV1 [2]; DRG cultures of G2A-deficient mice, 9-HODE 200 nM 120 s", "result": "not in G2A-deficient mice; also recorded: absent"},
      {"measurement": "sensitization of TRPV1 (Δratio of first and second capsaicin stimulus)", "setting": "TRPV1 [2]; DRG neurons, lipid incubated 2 minutes before second capsaicin stimulus, 0 to 1000 nM", "result": "dose-dependently sensitizes the TRPV1 channel; also recorded: concentration-dependently induced a sensitization of TRPV1"},
      {"measurement": "calcium flux of second vs first capsaicin stimulus (Δratio)", "setting": "TRPV1 [2]; wildtype DRG neurons, lipid 200 nM 120 s, capsaicin 200 nM 30 s", "result": "increased calcium flux compared to the first stimulus"},
      {"measurement": "mechanical pain thresholds after intraplantar 9-HODE", "setting": "[3]; G2A-deficient mice", "result": "not in G2A-deficient mice"},
      {"measurement": "mechanical paw withdrawal latencies after intraplantar 9-HODE", "setting": "[3]; TRPV1-deficient mice", "result": "not in TRPV1-deficient mice"},
      {"measurement": "mechanical paw withdrawal latencies after intraplantar 9-HODE", "setting": "[3]; wild type mice, ipsilateral paw (TRPV1 study)", "result": "strong reduction of mechanical paw withdrawal latencies"},
      {"measurement": "mechanical pain thresholds after intraplantar 9-HODE", "setting": "[3]; wildtype mice, left hind paw (G2A study, 10 μM)", "result": "strong reduction of mechanical pain thresholds"},
      {"measurement": "activation of the G2A receptor", "setting": "G2A receptor (GPR132) [4]", "result": "can activate the G2A receptor"},
      {"measurement": "capsaicin-induced inward current", "setting": "TRPV1 [5]", "result": "significantly increased"}
    ]}
  ]
}
